Data: ChEMBL document CHEMBL1201862, “PubChem BioAssay data set” (2004)
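96-well plates; 48 h exposure; 5 concentrations. Endpoints by linear interpolation between flanking doses. Not reached: highest tested concentration assigned. The concentration for 50% growth inhibition is given as GI50.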 Activity calls are given as the source filed them. Rule as the data show it: active = GI50 up to about 1.1 µM and inactive = higher.

What was measured:
Assay in all cases: DTP human tumour cell line panel, 48 h
[1] = system: SF-539
[2] = system: DU-145
[3] = system: SK-MEL-5
[4] = system: NCI/ADR-RES
[5] = system: UO-31
[6] = system: M14
[7] = system: MDA-MB-435
[8] = system: SF-268
[9] = system: LOX IMVI
[10] = system: COLO 205
[11] = system: T47D
[12] = system: HOP-92
[13] = system: SW-620
[14] = system: SK-OV-3
[15] = system: KM12
[16] = system: HCC 2998
[17] = system: MDA-N
[18] = system: PC-3
[19] = system: SK-MEL-2

Measured: GI50

CC(NC(=O)/C(=C/c1ccccc1O)NC(=O)c1ccccc1)C(=O)O (configuration not stated)
inactive: [1] 18.1 µM | [2] 45.6 µM | [3] 55.2 µM | [4] 12.7 µM | [5] 17.5 µM | [6] 51.3 µM | [7] 27.8 µM | [8] 15.8 µM | [9] 33.2 µM | [10] > 100 µM | [11] 13.2 µM | [12] 22.2 µM | [13] > 100 µM | [14] 19.4 µM | [15] 16.8 µM | [16] 9.23 µM | [17] 8.13 µM

O=C1CC(O)c2c1csc2Br (configuration not stated)
inactive: [2] 25.9 µM | [3] > 100 µM | [4] 20.7 µM | [18] 32.4 µM | [5] 19.8 µM | [6] 18.2 µM | [7] 18.8 µM | [8] 27.4 µM | [9] 16.4 µM | [19] 34.2 µM | [10] 41.3 µM | [11] 23.7 µM | [13] 15.3 µM | [14] 53.8 µM | [15] 18.7 µM | [16] 19.2 µM | [17] 22.5 µM

O=c1onc2c3ccccc3ncn12
inactive: [1] > 100 µM | [2] > 100 µM | [3] > 100 µM | [4] > 100 µM | [18] > 100 µM | [5] > 100 µM | [6] > 100 µM | [7] > 100 µM | [8] > 100 µM | [9] > 100 µM | [19] > 100 µM | [10] > 100 µM | [11] > 100 µM | [12] > 100 µM | [13] > 100 µM | [14] > 100 µM | [15] > 100 µM | [16] > 100 µM

CCCCCCc1cc2cc(C(=O)Nc3ccccc3F)c(=N)oc2cc1O
inactive: [1] 12.6 µM | [2] 9.31 µM | [3] 3.19 µM | [4] 2.64 µM | [18] 11.2 µM | [5] 4.27 µM | [6] 10.2 µM | [7] 3.39 µM | [8] 12.4 µM | [9] 5.24 µM | [19] 7.21 µM | [10] 19.3 µM | [11] 3.51 µM | [13] 12.6 µM | [14] 12.5 µM | [15] 4.01 µM | [16] 18.7 µM | [17] 7.29 µM

CC(O)(CCCCCl)c1nc2ccccc2s1 (configuration not stated)
inactive: [1] > 100 µM | [2] > 100 µM | [3] 51.4 µM | [4] 98.2 µM | [18] 34.9 µM | [5] 64.1 µM | [6] > 100 µM | [7] > 100 µM | [8] 52.8 µM | [9] 48.4 µM | [19] > 100 µM | [10] > 100 µM | [11] 29.8 µM | [13] > 100 µM | [14] > 100 µM | [15] > 100 µM | [17] > 100 µM

Cc1ccc(/N=N/C(=N/NC(=O)c2cc(Cl)ccc2C(=O)c2ccccc2)c2ccc(N(CCC#N)CCC#N)cc2C)cc1
inactive: [2] 11.5 µM | [3] 14 µM | [4] 21.1 µM | [18] 7.24 µM | [5] 22.4 µM | [6] 11.8 µM | [7] 18.7 µM | [8] 10.8 µM | [19] 1.34 µM | [10] 9.14 µM | [11] 3.81 µM | [13] 21.2 µM | [14] 8.09 µM | [15] 10.9 µM | [16] 13.8 µM | [17] 17 µM

ClCCN(CCCl)c1ccc(CNCCCNCc2ccc(N(CCCl)CCCl)cc2)cc1
inactive: [1] 1.46 µM | [2] 2.37 µM | [3] 1.95 µM | [4] 6.15 µM | [18] 5.92 µM | [5] 2.06 µM | [6] 4.7 µM | [7] 2.69 µM | [8] 1.43 µM | [9] 1.65 µM | [19] 2.17 µM | [10] 1.62 µM | [11] 2.04 µM | [12] 4.78 µM | [13] 3.03 µM | [14] 2.61 µM | [15] 1.99 µM | [16] 2.1 µM

CCN(CC)CCNC(=O)c1cc2cc(NC(=O)c3cc4cc(NC(=O)c5cc6cc([N+](=O)[O-])ccc6[nH]5)ccc4[nH]3)ccc2[nH]1
inactive: [2] > 100 µM | [3] > 100 µM | [4] > 100 µM | [18] > 100 µM | [5] > 100 µM | [6] > 100 µM | [7] > 100 µM | [8] > 100 µM | [9] > 100 µM | [19] > 100 µM | [10] > 100 µM | [11] > 100 µM | [12] > 100 µM | [13] > 100 µM | [14] > 100 µM | [15] > 100 µM | [16] > 100 µM

COc1ccc(-c2c(C(C)=O)c(-c3ccccc3)n(C3OC(COC(C)=O)C(OC(C)=O)C(OC(C)=O)C3OC(C)=O)c(=S)c2C#N)cc1 (configuration not stated)
inactive: [1] > 100 µM | [2] > 100 µM | [3] > 100 µM | [4] > 100 µM | [6] > 100 µM | [7] > 100 µM | [8] > 100 µM | [9] > 100 µM | [10] > 100 µM | [11] > 100 µM | [12] 19.2 µM | [13] > 100 µM | [14] > 100 µM | [15] > 100 µM | [16] > 100 µM | [17] > 100 µM

C=C(CCOC)CCC1CCCCC(CN(C)C)C1=O (configuration not stated)
inactive: [2] > 100 µM | [3] > 100 µM | [4] > 100 µM | [18] > 100 µM | [5] > 100 µM | [6] > 100 µM | [7] > 100 µM | [8] > 100 µM | [9] > 100 µM | [19] > 100 µM | [10] > 100 µM | [11] > 100 µM | [13] > 100 µM | [14] > 100 µM | [15] > 100 µM | [16] > 100 µM | [17] > 100 µM

C[C@@H]1CC[C@H]2[C@H](C)C(OC3O[C@@H]4O[C@@]5(C)CC[C@H]6[C@H](C)CC[C@@H]([C@@H]3C)[C@@]46O5)O[C@@H]3O[C@@]4(C)CC[C@@H]1[C@]32O4 (some centres not stated)
inactive: [1] > 100 µM | [2] > 100 µM | [3] > 100 µM | [18] > 100 µM | [6] > 100 µM | [7] > 100 µM | [8] > 100 µM | [9] > 100 µM | [19] > 100 µM | [10] > 100 µM | [11] > 100 µM | [13] > 100 µM | [14] > 100 µM | [15] > 100 µM | [16] > 100 µM | [17] > 100 µM
